Here are results for four compounds from patent US8324202B2, “5-phenyl-1H-benzo [E] [1,4] diazepine compounds substituted with an hydroxamic acid group as histone deacetylase inhibitors” (Universita Degli Studi di Firenze, priority 2007, dated 2012).

What all share (format): cell-based, human
The test system of one test is acetylated H3 histone. In words: Histone deacetylase inhibition: western blot for acetylated histone H3 in cells incubated 6 hours with drug. The settings on record: for Acetyl-H3 densitometric value: 6 hours, untreated = 1; for H3 histone acetylating activity, in words: summary in description. The method, then:
(§1) The new described compounds were tested for their ability to inhibit the histone deacetylase activity by western blot for the acetylated isoforms of histone H3 and H4 and also to induce growth arrest in cancer cells by activating apoptosis and/or cell differentiation. Initially, biological activities of newly synthesized HDACi were assessed by using the human acute promyelocytic leukemia cell line NB4, as the experimental model. Cells were maintained in RPMI (Bio-Whittaker Europe, Verviers, Belgio) supplemented with 10% of fetal calf serum (FCS, Boehringer Mannheim, Germania) and 2 mM glutamine (Merck, Darmstadt, Germania) at 37° C. in a humidified atmosphere of 5% CO2. Cells were counted in a Burker chamber and cells viability was assessed by the trypan blu exclusion test.
(§2) Cells, obtained as described above, were harvested in sterile plates (Falcon, Becton Dickinson, Franklin Lakes, N.J.) at density of 6×10^5/mL, and incubated for 6 hours with increasing drug concentration of single compounds. Then, the cells were lysated with RIPA buffer (50 mM Tris-HCl pH 7.4, 150 mM NaCl, 1% Nonidet P-40, 1 mM EDTA plus protease inhibitor cocktail (Protease Inhibitor Cocktail Set III, n° cat. 539134, Calbiochem, Merck, Darmstadt, Germany) and sonicated (Labsonic 1510) twice for 15s pulses at 1-2 Watts in ice. Protein concentration of cell extracts was determined according to the bicinchoninic acid colorimetric method (BCA, Pierce, Rockford, USA) by using serum bovine albumin as the standard (BSA, Sigma, Steinheim, Germania). Equal amounts of protein (20-40 μg/20-30 μL/well) were separated on NuPAGE Bis-Tris 12% gel (Novex, Invitrogen, Carlsbad, Calif.) 10% and transferred to nitrocellulose membranes (Pro-Bind, pore diameter=0.45 μm; Amersham Pharmacia). Then membranes, incubated in phosphate buffer saline (PBS) with 6% defatted dry milk as blocking solution to saturate unspecific binding sites, were probed overnight at 4° C. with primary antibodies (1;1000 dilution in PBS) raised against acetylated H4 a H3 histone isoforms (Upstate Technologies, Lake Placid, N.Y., USA). […] The experiment was performed with the compound (II) S form, where R1 and R2 can be independently a methyl group or hydrogen.
On the technique in general: A western blot detects proteins with antibodies after separation by electrophoresis.

Test [1] concerns NB4 cells. In words: Granulocytic differentiation, NBT reduction assay, alone or with ATRA. The settings on record: for % of NBT+ cells: three days. The method, then:
The analysis of functional myeloid differentiation induced by compounds of the invention was accomplished by Nitro-Blu tetrazolium (NBT) reduction assay as described below. Cell suspension (approximately 10^5/mL) were incubated in the presence of 0.25 mg/mL NBT and 500 ng of PMA (Phorbol-12-Myristate 13-acetate) (Sigma) at 37° C. for 30 minutes. Granulocyte or monocyte differentiated cell were capable of reducing NBT to dark formazan precipitate (blu positive cells). NBT positive cells were counted on Burker chamber and expressed as percentage of total cell population.
(§3) • Compounds (II) in racemic form and enantiomers S or R. • Compounds (III) in racemic form and enantiomers S or R. • Compounds (II) with R1 and R2=hydrogen were tested for their capability to synergize with ATRA and for their ability to induce granulocyte differentiation in the human promyelocytic cell line NB4. ATRA at the final concentration of 1 μM is usually employed to induce granulocyte differentiation in NB4 cells.
(§4) NB4 cells were incubated for three days in presence of the compounds listed above, alone or in combination with ATRA. Granulocyte differentiation of leukemic cells was determined by (a) Nitro-Blu tetrazolium (NBT) reduction to dark formazan precipitate (blu positive cells) counting NBT positive cells on Burker chamber and (b) cytofluorimetric analysis of CD11b membrane expression (granulocyte marker, see example 32).

In test [2] the test system is NB4 cells. In words: Cytostatic and apoptotic activity, Annexin-V-FLUOS/propidium iodide flow cytometry, 48 hours. The settings on record: for IC50: Homo sapiens, NB-4, 48 hours, graphic extrapolation of Annexin-V results, viable cells over control, read-out: IC50 (drug concentration reducing cell density or viability by 50%); for apoptotic activity, in words: leukemic cells, summary in description. The method, then: as §1
Cells, were initially harvested at 4×10^5/mL (3 mL/well) cell density 24 well plate and incubated for 48 hours with increasing drug concentration. All compounds were solubilized in DMSO so that the final concentration of vehicle in culture was lower than 0.1%. At the end of treatment cell viability and apoptosis were evaluated by cytofluorimetric analysis using Anexin-V-Fluos staining (Annexin-V-FLUOS Staining Kit, Roche Molecular Biochemicals, Mannheim, Germany).
Necrotic cells, which are also Annexin-V positive, were identified by using Propidium iodide fluorochrome, that is capable of penetrating cell membranes of dying or dead cells and binding DNA.
Briefly, aliquots of cell suspensions (approximately 10^5 cells) washed in buffer PBS, were resuspended in 5 μl of binding buffer containing annexin V-fluorescein isothiocyanate (FITC) and propidium iodide; incubation was carried out for 15 minutes at room temperature, and cells were then analyzed by flow cytometry (FACScan Becton-Dickinson, San Jose, Calif.).
The IC50 values (i.e. the drug concentration necessary to reduce cell density or viability by 50% as compared to untreated control cultures) obtained by graphic extrapolation of the Anexin-V results and expressed as percentage of viable cells over control were reported In Table 2.
Data represent the percentage of viable cells as the function of drug concentration.

The subject of the next test is acetylated H4 histone. Briefly: Histone deacetylase inhibition: western blot for acetylated histone H4 in cells incubated 6 hours with drug. The settings on record: for Acetyl-H4 densitometric value: 6 hours, untreated = 0; for H4 histone acetylating activity, in words: summary in description. The method, then: as §1, §2
The test system of test [3] is NB4 cells. In words: Granulocytic differentiation, cytofluorimetric analysis of CD11b membrane expression, alone or with ATRA. The conditions noted are these: for % of CD11b+ cells: three days; for effect on CD11b positive cells, in words: alone or in combination with 20 nM ATRA. The method, then: Identification of markers of myeloid maturation was determined by flow cytometry by labelling cells with PE-conjugated antibody and FITC-conjugated antibody to CD11b (granulocyte marker) and CD14 (monocyte marker) respectively (Becton-Dickinson). Cell suspension aliquots (1×10^5 cells) were washed with cell wash buffer (Becton-Dickinson) and incubated with antibodies for 30 minutes in ice. After the incubation cells, resuspended in 0.3 mL of buffer containing Actinomycin D (Becton-Dickinson) to evaluate cell viability, were submitted to the cytofluorimetric analysis (FACScan, Becton-Dickinson). Cells incubated with appropriately labeled isotype controls were used to gate nonspecific fluorescence signal.
as §3, §4

The test system of test [4] is NB4 cells. In words: Morphologic evaluation of apoptosis, May-Grünwald-Giemsa stained cytosmears. The settings on record: FIG. 1 panel C, magnification ×650. The method, then: Cells were fixed with acid acetic/methanol (⅓, v/v), then 20 μL of fixed cell suspension were placed on glass slide and let dry for 24 h. The cytosmears were stained with May-Grünwald-Giemsa and apoptotic cells were identified according to the typical morphologic parameters such as nuclear fragmentation, reduction of cell volume and apoptotic bodies. Image analyses were obtained by using a Nikon Eclipse 50i microscope equipped with a Nikon Digital Sight DS -5M (Nikon Corporation, Tokyo, Japan).

Regarding `CC1N=C(c2ccccc2)c2cc(C#CCCCC(=O)NO)ccc2N(C)C1=O` (racemic) [Compound (II) racemic with R1 or R2 = Me, N-hydroxy-6-(1,3-dimethyl-2-oxo-5-phenyl-2,3-dihydro-1H-benzo[e][1,4]diazepin-7-yl)-5-hexynamide], the Acetyl-H3 densitometric value in the test on acetylated H3 histone (1 μM) was found to be 3.73 arbitrary units; in the test on acetylated H3 histone (2 μM) it was 4.61 arbitrary units; in the test with acetylated H3 histone (5 μM), 5.19 arbitrary units. Besides, in the test on NB4 cells [1] (3 μM compound + 20 nM ATRA), the “increase of NBT positive cells, combination versus each agent alone” value is “up to 50 fold”. The “% of NBT+ cells” value with NB4 cells [1] (3 μM compound + 20 nM ATRA) is reported as 72%; in the test on NB4 cells [1] (3 μM compound alone) it was “≦1%”. In addition, the IC50 in the test on NB4 cells [2] was 3.4 µM. The “apoptotic activity, in words” value in the test on NB4 cells [2] is given as “good ability to induce apoptosis”. The Acetyl-H4 densitometric value with acetylated H4 histone (1 μM) is recorded as 1.67 arbitrary units; in the test with acetylated H4 histone (2 μM), 5.92 arbitrary units; in the test on acetylated H4 histone (5 μM), 16.29 arbitrary units. Moreover, the “% of CD11b+ cells” value is 81.7% in the test on NB4 cells [3] (3 μM compound + 20 nM ATRA) and 31.2% with NB4 cells [3] (3 μM compound alone).

Take `CN1C(=O)CN=C(c2ccccc2)c2cc(C#CCCCC(=O)NO)ccc21` [Compound (II) R1 and R2 = hydrogen, 6-(1-methyl-2-oxo-5-phenyl-2,3-dihydro-1H-benzo[e][1,4]diazepin-7-yl)-N-hydroxyhex-5-ynamide]: the Acetyl-H3 densitometric value in the test with acetylated H3 histone (0.5 μM) is 2.26 arbitrary units; in the test on acetylated H3 histone (1 μM), 2.41 arbitrary units; in the test with acetylated H3 histone (2.5 μM), 2.836 arbitrary units. Moreover, the “% of NBT+ cells” value with NB4 cells [1] (1.5 μM compound + 20 nM ATRA) is listed as 45%; in the test with NB4 cells [1] (1.5 μM compound alone), 2%; with NB4 cells [1] (3 μM compound + 20 nM ATRA), 80%; in the test on NB4 cells [1] (3 μM compound alone), 3%. Moreover, the IC50 with NB4 cells [2] is 4.9 µM. Further, in the test with NB4 cells [2], the “apoptotic activity, in words” value is given as “excellent apoptotic activity”. Besides, the Acetyl-H4 densitometric value in the test with acetylated H4 histone (0.5 μM) was found to be 1.3 arbitrary units; in the test on acetylated H4 histone (1 μM), 1.8 arbitrary units; with acetylated H4 histone (2.5 μM), 4 arbitrary units. Besides, the “H4 histone acetylating activity, in words” value in the test on acetylated H4 histone is on record as “good H4 histone acetylating activity”. The “% of CD11b+ cells” value with NB4 cells [3] (1.5 μM compound + 20 nM ATRA) is recorded as 74.3%; in the test with NB4 cells [3] (1.5 μM compound alone), 44%; with NB4 cells [3] (3 μM compound + 20 nM ATRA) it was 94.7%; in the test on NB4 cells [3] (3 μM compound alone), 69.3%. In addition, the “effect on CD11b positive cells, in words” value in the test with NB4 cells [3] was “significant and dose-dependent increase in the amount of CD11b positive cells”.

For the compound `C[C@@H]1N=C(c2ccccc2)c2cc(C#CCCCC(=O)NO)ccc2N(C)C1=O` [Compound (II) S form with R1 or R2 = Me, (S)-6-(1,3-dimethyl-2-oxo-5-phenyl-2,3-dihydro-1H-benzo[e][1,4]diazepin-7-yl)-N-hydroxyhex-5-ynamide], the Acetyl-H3 densitometric value with acetylated H3 histone (0.5 μM) stood at 2.88 arbitrary units; in the test on acetylated H3 histone (1 μM) it was 3.85 arbitrary units; in the test on acetylated H3 histone (2.5 μM), 5.23 arbitrary units. Moreover, in the test with acetylated H3 histone, the “H3 histone acetylating activity, in words” value is listed as “good activity to induce H3 histone acetylation in a dose-dependent way”. The “% of NBT+ cells” value in the test with NB4 cells [1] (1.5 μM compound + 20 nM ATRA) was 41%; with NB4 cells [1] (1.5 μM compound alone), “≦1%”. Also, the IC50 with NB4 cells [2] is 1.7 µM. The Acetyl-H4 densitometric value in the test with acetylated H4 histone (0.5 μM) worked out at 1 arbitrary units; in the test on acetylated H4 histone (1 μM), 1.33 arbitrary units; in the test on acetylated H4 histone (2.5 μM) it was 12.96 arbitrary units. Besides, in the test on acetylated H4 histone, the “H4 histone acetylating activity, in words” value is “facilitating, in its enantiomerically pure (S) form, H4 histone acetylation”. Also, in the test on NB4 cells [4], the “morphology of treated cells (apoptosis)” value is “massive nuclear fragmentation suggestive of a typical apoptotic process”. Further, the “% of CD11b+ cells” value with NB4 cells [3] (1.5 μM compound + 20 nM ATRA) stood at 62.3%; in the test on NB4 cells [3] (1.5 μM compound alone) it was 36.3%.

As to `C[C@H]1N=C(c2ccccc2)c2cc(NC(=O)CCCCCCC(=O)NO)ccc2N(C)C1=O` [Compound (III) R form with R1 or R2 = Me, (R)—N1-(1,3-dimethyl-2-oxo-5-phenyl-2,3-dihydro-1H-benzo[e][1,4]diazepin-7-yl)-N8-hydroxyoctanediamide], the Acetyl-H3 densitometric value stood at 4.46 arbitrary units with acetylated H3 histone (1 μM), 6.85 arbitrary units in the test on acetylated H3 histone (2 μM) and 7.27 arbitrary units with acetylated H3 histone (5 μM). Also, the “H3 histone acetylating activity, in words” value in the test with acetylated H3 histone is “good H3 histone acetylating activity”. Moreover, the “% of NBT+ cells” value in the test with NB4 cells [1] (3 μM compound + 20 nM ATRA) is reported as 70%; with NB4 cells [1] (3 μM compound alone), 3%. The IC50 with NB4 cells [2] was 3.7 µM. In the test on NB4 cells [2], the “apoptotic activity, in words” value was “high apoptotic activity”. Further, the Acetyl-H4 densitometric value is 17.78 arbitrary units with acetylated H4 histone (1 μM), 29.63 arbitrary units in the test with acetylated H4 histone (2 μM) and 34.07 arbitrary units in the test on acetylated H4 histone (5 μM). Besides, the “H4 histone acetylating activity, in words” value in the test with acetylated H4 histone is “excellent H4 histone acetylating activity”. The “% of CD11b+ cells” value with NB4 cells [3] (3 μM compound + 20 nM ATRA) was determined as 80%; in the test on NB4 cells [3] (3 μM compound alone) it was 39.3%. The “effect on CD11b positive cells, in words” value in the test with NB4 cells [3] is reported as “augmented the percentage of CD11b positive cells”.
